Test results taken from patent publication US9303049B2, “Nanodot and method for manufacturing the same” (National Sun Yat-sen University, priority 2013, dated 2016).

Key:
SK-Hep-1 cell [1] = experiment: Bioprobing and bioimaging, fluorescence microscopy of SK-Hep-1 cell; format: cell-based; settings: for fluorescence signal in SK-Hep-1 cell: 48 hours incubation, nanodot solutions 20 mM, different excitation light sources
Procedure: SK-Hep-1 cell was incubated under 37° C. for 12 hours (overnight). Then avidin (purchased from Sigma) was added into the SK-Hep-1 cell to form a cell culture. […] Then the cell was fixed by paraformaldehyde.
SK-Hep-1 cell was incubated under 37° C. for 12 hours (overnight). Then avidin-FITC (purchased from Sigma) was added into the SK-Hep-1 cell to form a cell culture.
SK-Hep-1 cell was incubated under 37° C. for 12 hours (overnight). Then the 3-aminopropyltriethoxysilane nanodot solution (20 mM) prepared in example 4 and the avidin modified 3-aminopropyltriethoxysilane nanodot solution (20 mM) were added into this SK-Hep-1 cell to form two cell cultures respectively. […] Then the cell was fixed by paraformaldehyde. […] Referring to FIG. 10, FIGS. 10(a)-(d) show the SK-Hep-1 cell added with 3-aminopropyltriethoxysilane nanodot solution. FIGS. 10(m)-(p) show the SK-Hep-1 cell added with avidin modified 3-aminopropyltriethoxysilane nanodot solution. […] Therefore, the fluorescence signal of FIGS. 10(b)-(d) and (n)-(p) resulted from the nanodot. In addition, FIGS. 10(i)-(I) show the SK-Hep-1 cell added with avidin-FITC. […] FIGS. 13(a)-(c) show the images of the SK-Hep-1 cell added with 3-aminopropyltriethoxysilane nanodot solution and continuously irradiated with excitation light, wherein FIGS. 13(a)-(c) are the images observed at 0 minutes, 2 minutes and 5 minutes respectively. FIGS. 13(d)-(f) show the images of the SK-Hep-1 cell added with avidin-FITC and continuously irradiated with excitation light, wherein FIGS. 13(d)-(f) are the images observed at 0 minutes, 2 minutes and 5 minutes respectively. FIGS. 13(g)-(i) show the images of the SK-Hep-1 cell added with avidin modified 3-aminopropyltriethoxysilane nanodot solution and continuously irradiated with excitation light, wherein FIGS. 13(g)-(i) are the images observed at 0 minutes, 2 minutes and 5 minutes respectively. […] Therefore, the nanodot has better photo stability.

SK-Hep-1 cell [2] = experiment: Stability measurement of fluorescence under continuous excitation light in SK-Hep-1 cell; format: cell-based; settings: continuously irradiated with excitation light, observed at 2 minutes and 5 minutes versus 0 minutes
Procedure: SK-Hep-1 cell was incubated under 37° C. for 12 hours (overnight). Then the 3-aminopropyltriethoxysilane nanodot solution (20 mM) prepared in example 4 and the avidin modified 3-aminopropyltriethoxysilane nanodot solution (20 mM) were added into this SK-Hep-1 cell to form two cell cultures respectively. […] Then the cell was fixed by paraformaldehyde. […] Referring to FIG. 10, FIGS. 10(a)-(d) show the SK-Hep-1 cell added with 3-aminopropyltriethoxysilane nanodot solution. FIGS. 10(m)-(p) show the SK-Hep-1 cell added with avidin modified 3-aminopropyltriethoxysilane nanodot solution. […] Therefore, the fluorescence signal of FIGS. 10(b)-(d) and (n)-(p) resulted from the nanodot. In addition, FIGS. 10(i)-(I) show the SK-Hep-1 cell added with avidin-FITC. […] FIGS. 13(a)-(c) show the images of the SK-Hep-1 cell added with 3-aminopropyltriethoxysilane nanodot solution and continuously irradiated with excitation light, wherein FIGS. 13(a)-(c) are the images observed at 0 minutes, 2 minutes and 5 minutes respectively. FIGS. 13(d)-(f) show the images of the SK-Hep-1 cell added with avidin-FITC and continuously irradiated with excitation light, wherein FIGS. 13(d)-(f) are the images observed at 0 minutes, 2 minutes and 5 minutes respectively. […]

| Substance | fluorescence signal in SK-Hep-1 cell (SK-Hep-1 cell [1]) | effect of avidin modification on entry into cells (SK-Hep-1 cell [1]; FIGS. 10(n)-(p) compared with FIGS. 10(b)-(d), SK-Hep-1 cell, 48 hours) | fluorescence after continuous irradiation (photo stability) (SK-Hep-1 cell [2]) |
| --- | --- | --- | --- |
| avidin modified 3-aminopropyltriethoxysilane nanodot: 3-aminopropyltriethoxysilane nanodot of example 4 modified with avidin | significant multiphoton fluorescence with red, green and blue lights emitted | enhance the efficiency of the nanodot to enter into cells and aggregate in cells | only became slightly weak |
| avidin-FITC: avidin-FITC purchased from Sigma; FITC is a conventional organic fluorescent dye widely applied in bioimaging | could not emit blue and red fluorescence |  | nearly no fluorescence |
| avidin | no fluorescence signal |  |  |
